Laboratory results taken from ChEMBL document CHEMBL3217447, “Biosynthetic gene cluster and antimicrobial activity of the elfamycin antibiotic factumycin” (2012).
Converted amounts (≈) assume the structure as drawn.

Key:
Format in all cases: functional
[1] = tested on: Acinetobacter baumannii; assay: Antibacterial activity against Acinetobacter baumannii ATCC 17978 by microdilution checkerboard method in presence of tetracycline
[2] = tested on: Escherichia coli; assay: Antibacterial activity against Escherichia coli GDW914 assessed as growth inhibition
[3] = tested on: Escherichia coli; assay: Antibacterial activity against Escherichia coli GDW916 assessed as growth inhibition
[4] = tested on: Klebsiella pneumoniae; assay: Antibacterial activity against Klebsiella pneumoniae GDW917 assessed as growth inhibition
[5] = tested on: Klebsiella pneumoniae; assay: Antibacterial activity against Klebsiella pneumoniae by microdilution checkerboard method in presence of tetracycline
[6] = tested on: Acinetobacter baumannii; assay: Antibacterial activity against Acinetobacter baumannii mrH4 assessed as growth inhibition
[7] = tested on: Acinetobacter baumannii; assay: Antibacterial activity against Acinetobacter baumannii mrH3 assessed as growth inhibition
[8] = tested on: Pseudomonas aeruginosa; assay: Antibacterial activity against Pseudomonas aeruginosa GDW788 assessed as growth inhibition
[9] = tested on: Pseudomonas aeruginosa; assay: Antibacterial activity against Pseudomonas aeruginosa GDW790 assessed as growth inhibition
[10] = tested on: Staphylococcus aureus; assay: Antibacterial activity against Staphylococcus aureus ATCC 29213 by microdilution checkerboard method in presence of tetracycline
[11] = tested on: Acinetobacter baumannii; assay: Antibacterial activity against Acinetobacter baumannii mrH4 by microdilution checkerboard method in presence of tetracycline
[12] = tested on: Enterococcus faecalis; assay: Antibacterial activity against Enterococcus faecalis ATCC 29212 assessed as growth inhibition
[13] = tested on: Klebsiella pneumoniae; assay: Antibacterial activity against Klebsiella pneumoniae GDW915 assessed as growth inhibition
[14] = tested on: Acinetobacter baumannii; assay: Antibacterial activity against Acinetobacter baumannii GDW786 assessed as growth inhibition
[15] = tested on: Acinetobacter baumannii; assay: Antibacterial activity against Acinetobacter baumannii mrH5 assessed as growth inhibition
[16] = tested on: Staphylococcus aureus; assay: Antibacterial activity against Staphylococcus aureus ATCC 29213 assessed as growth inhibition
[17] = tested on: Acinetobacter baumannii; assay: Antibacterial activity against Acinetobacter baumannii B00919434 assessed as growth inhibition
[18] = tested on: Staphylococcus aureus; assay: Antibacterial activity against Staphylococcus aureus CMRSA6 assessed as growth inhibition
[19] = tested on: Acinetobacter baumannii; assay: Antibacterial activity against Acinetobacter baumannii ATCC 17978 assessed as growth inhibition
[20] = tested on: Escherichia coli; assay: Antibacterial activity against Escherichia coli ATCC 25922 assessed as growth inhibition
[21] = tested on: Enterococcus faecalis; assay: Antibacterial activity against Enterococcus faecalis ATCC 51299 assessed as growth inhibition
[22] = tested on: Acinetobacter baumannii; assay: Antibacterial activity against Acinetobacter baumannii GDW787 assessed as growth inhibition
[23] = tested on: Pseudomonas aeruginosa; assay: Antibacterial activity against Pseudomonas aeruginosa PAO1 assessed as growth inhibition
[24] = tested on: Acinetobacter baumannii; assay: Antibacterial activity against Acinetobacter baumannii B00636584 assessed as growth inhibition
[25] = tested on: Escherichia coli; assay: Antibacterial activity against Escherichia coli […] by microdilution checkerboard method in presence of tetracycline
[26] = tested on: Pseudomonas aeruginosa; assay: Antibacterial activity against Pseudomonas aeruginosa GDW789 assessed as growth inhibition
[27] = tested on: Escherichia coli; assay: Antibacterial activity against Escherichia coli GDW918 assessed as growth inhibition
[28] = tested on: Staphylococcus aureus; assay: Antibacterial activity against Staphylococcus aureus CMRSA7 assessed as growth inhibition
[29] = tested on: Enterococcus faecalis; assay: Antibacterial activity against Enterococcus faecalis ATCC 29212 by microdilution checkerboard method in presence of tetracycline
[30] = tested on: Pseudomonas aeruginosa; assay: Antibacterial activity against Pseudomonas aeruginosa PAO1 by microdilution checkerboard method in presence of tetracycline
[31] = tested on: Staphylococcus aureus; assay: Antibacterial activity against Staphylococcus aureus CMRSA5 assessed as growth inhibition
[32] = tested on: Pseudomonas aeruginosa; assay: Antibacterial activity against Pseudomonas aeruginosa GDW787 assessed as growth inhibition

- MIC [2]: 128 µg/mL (≈ 164 µM)
- MIC [3]: 128 µg/mL (≈ 164 µM)
- MIC [4]: 128 µg/mL (≈ 164 µM)
- MIC [6]: 8 µg/mL (≈ 10.3 µM)
- MIC [7]: 16 µg/mL (≈ 20.5 µM)
- MIC [8]: 128 µg/mL (≈ 164 µM)
- MIC [9]: 128 µg/mL (≈ 164 µM)
- MIC [12]: 16 µg/mL (≈ 20.5 µM)
- MIC [13]: > 128 µg/mL
- MIC [14]: 128 µg/mL (≈ 164 µM)
- MIC [15]: 8 µg/mL (≈ 10.3 µM)
- MIC [16]: 32 µg/mL (≈ 41.1 µM)
- MIC [17]: 8 µg/mL (≈ 10.3 µM)
- MIC [18]: > 128 µg/mL
- MIC [19]: 32 µg/mL (≈ 41.1 µM)
- MIC [20]: 64 µg/mL (≈ 82.2 µM)
- MIC [21]: 64 µg/mL (≈ 82.2 µM)
- MIC [22]: 128 µg/mL (≈ 164 µM)
- MIC [23]: 128 µg/mL (≈ 164 µM)
- MIC [24]: 16 µg/mL (≈ 20.5 µM)
- MIC [26]: > 128 µg/mL
- MIC [27]: 128 µg/mL (≈ 164 µM)
- MIC [28]: > 128 µg/mL
- MIC [31]: > 128 µg/mL
- MIC [32]: 128 µg/mL (≈ 164 µM)
Compound: C/C=C\C=C\[C@@H]1O[C@](O)([C@H](CC)C(=O)NC/C=C/C=C(\C)[C@@H](OC)[C@@H](C)C(O)[C@@H](O)/C=C/C=C/C=C/C=C(\C)C(=O)c2c(O)ccn(C)c2=O)C[C@H](O)C1(C)C (some centres not stated)
- fractional inhibitory concentration index (FICI) [1]: 2
- fractional inhibitory concentration index (FICI) [5]: 0.5
- fractional inhibitory concentration index (FICI) [10]: 2
- fractional inhibitory concentration index (FICI) [11]: 0.25
- fractional inhibitory concentration index (FICI) [25]: 2
- fractional inhibitory concentration index (FICI) [29]: 0.375
- fractional inhibitory concentration index (FICI) [30]: 2
